From the supplement of paper PMC10307832

Assays:
Experiment in all cases: relative viability (nuclei count vs DMSO), 5 days (fraction); higher = more cells survive
Vemurafenib + OSI-027 = compound: CCCS(=O)(=O)Nc1ccc(F)c(C(=O)c2c[nH]c3ncc(-c4ccc(Cl)cc4)cc23)c1F [Vemurafenib] + COc1cccc2cc(-c3nc([C@H]4CC[C@H](C(=O)O)CC4)n4ncnc(N)c34)[nH]c12 [OSI-027] (partner 0.5 µM)
In short: (§1)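 Dosing by pin tool came one day after lung cancer cell lines were seeded in 1536-well plates, using either one drug or a fixed anchor-drug dose plus five library-drug doses (not always all listed) in √10 steps. After 5 days, nuclei were counted on 4× images. Relative viability is treated-well nuclei count divided by vehicle-well nuclei count, and values are medians of duplicate plates.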

Alpelisib + Palbociclib = compound: Cc1nc(NC(=O)N2CCC[C@H]2C(N)=O)sc1-c1ccnc(C(C)(C)C(F)(F)F)c1 [Alpelisib] + CC(=O)c1c(C)c2cnc(Nc3ccc(N4CCNCC4)cn3)nc2n(C2CCCC2)c1=O [Palbociclib] (partner 0.5 µM)
In short: as §1

Alpelisib + Bortezomib = compound: Cc1nc(NC(=O)N2CCC[C@H]2C(N)=O)sc1-c1ccnc(C(C)(C)C(F)(F)F)c1 [Alpelisib] + CC(C)C[C@H](NC(=O)[C@H](Cc1ccccc1)NC(=O)c1cnccn1)B(O)O [Bortezomib] (partner 0.002 µM)
In short: as §1

Alpelisib + Tozasertib = compound: Cc1nc(NC(=O)N2CCC[C@H]2C(N)=O)sc1-c1ccnc(C(C)(C)C(F)(F)F)c1 [Alpelisib] + Cc1cc(Nc2cc(N3CCN(C)CC3)nc(Sc3ccc(NC(=O)C4CC4)cc3)n2)n[nH]1 [Tozasertib] (partner 0.1 µM)
In short: as §1

Cell Line	relative viability (Vemurafenib + OSI-027; first compound 0.03162 µM)	relative viability (Vemurafenib + OSI-027; first compound 0.1 µM)	relative viability (Vemurafenib + OSI-027; first compound 0.3162 µM)	relative viability (Vemurafenib + OSI-027; first compound 1 µM)	relative viability (Alpelisib + Palbociclib; first compound 0.04 µM)	relative viability (Alpelisib + Palbociclib; first compound 0.1265 µM)	relative viability (Alpelisib + Palbociclib; first compound 0.4 µM)	relative viability (Alpelisib + Palbociclib; first compound 1.265 µM)	relative viability (Alpelisib + Palbociclib; first compound 4 µM)	relative viability (Alpelisib + Bortezomib; first compound 0.04 µM)	relative viability (Alpelisib + Bortezomib; first compound 0.4 µM)	relative viability (Alpelisib + Bortezomib; first compound 1.265 µM)	relative viability (Alpelisib + Bortezomib; first compound 4 µM)	relative viability (Alpelisib + Tozasertib; first compound 0.04 µM)	relative viability (Alpelisib + Tozasertib; first compound 0.1265 µM)	relative viability (Alpelisib + Tozasertib; first compound 0.4 µM)	relative viability (Alpelisib + Tozasertib; first compound 1.265 µM)	relative viability (Alpelisib + Tozasertib; first compound 4 µM)	relative viability (Alpelisib + Bortezomib; first compound 0.1265 µM)
LCLC-97TM1	0.49	0.612	0.713	0.43	0.206	0.177	0.183	0.119	0.0948	0.682	0.86	0.384	0.237	0.206	0.176	0.178	0.146	0.117	–
NCI-H2085	0.645	0.37	0.663	0.637	0.464	0.484	0.455	0.447	0.446	0.982	0.816	0.927	0.842	0.825	0.718	0.907	0.762	0.746	1.08
NCI-H647	0.636	0.629	0.477	0.564	0.322	0.447	0.421	0.289	0.275	0.75	1.34	0.944	0.922	0.416	0.322	0.419	0.102	0.26	1.1
BEN	0.27	0.267	–	0.265	0.485	0.504	0.516	0.439	0.447	0.793	0.807	0.761	0.697	0.552	0.443	0.571	0.521	0.484	0.733
201T	0.757	0.78	0.776	0.497	0.374	0.335	0.357	0.315	0.29	1.1	1.18	1.08	1.09	0.934	0.918	0.917	0.838	0.8	1.08
NCI-H2405	0.611	0.637	–	0.621	0.515	0.536	0.52	0.43	0.462	0.997	0.927	0.83	0.696	0.725	0.68	0.825	0.682	0.625	0.835
RERF-LC-KJ	0.651	0.454	0.533	0.632	1.1	1.03	1.16	0.759	0.928	1.1	1.32	1.01	0.934	0.466	0.455	0.572	0.363	0.349	1.08
NCI-H1993	0.523	–	0.607	0.494	0.549	0.637	0.647	0.501	0.465	1.09	1.02	0.791	0.489	0.621	0.505	0.542	0.511	0.515	1.03
EPLC-272H	0.268	0.219	0.275	0.243	0.289	0.333	0.324	0.291	0.267	0.902	1.13	0.904	0.622	0.256	0.326	0.513	0.203	0.173	0.911
NCI-H1915	0.585	0.639	0.471	0.533	0.555	0.531	0.573	0.474	0.471	0.991	0.947	0.887	0.805	0.421	0.381	0.491	0.387	0.392	1.04
